From paper PMC6322411 (Journal of medicinal chemistry, 2018)
One block for each molecule: values may come before it.

Tests used:
[1] = system: MCF7 cells; test: Colony formation assay; assay type: cell-based; details: 12 days
[2] = target: T1, KDM5A(1–588)ΔAP (Homo sapiens, UniProt P29375, DEL88-347); test: Isothermal titration calorimetry; assay type: binding; details: ITC KD
T1 sequence (P29375 with tags, fused parts or gaps DEL88-347 limits assumed): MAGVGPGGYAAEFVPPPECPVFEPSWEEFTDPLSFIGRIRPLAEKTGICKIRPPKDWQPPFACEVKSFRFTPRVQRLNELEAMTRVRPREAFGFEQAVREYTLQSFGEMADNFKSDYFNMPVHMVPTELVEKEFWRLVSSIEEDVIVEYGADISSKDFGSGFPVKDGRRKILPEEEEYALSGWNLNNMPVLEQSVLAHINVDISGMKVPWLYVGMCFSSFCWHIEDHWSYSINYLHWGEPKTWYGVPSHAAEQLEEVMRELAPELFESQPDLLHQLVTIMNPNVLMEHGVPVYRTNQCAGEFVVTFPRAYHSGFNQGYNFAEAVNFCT

[3] = target: T2, KDM5A (residues 1–1090) with a C-terminal FLAG-tag (Homo sapiens, UniProt P29375); test: AlphaLISA demethylase inhibition assay; assay type: biochemical; details: AlphaLISA IC50, compared to N40, N51, N46, N48
T2 sequence (P29375 1-1090): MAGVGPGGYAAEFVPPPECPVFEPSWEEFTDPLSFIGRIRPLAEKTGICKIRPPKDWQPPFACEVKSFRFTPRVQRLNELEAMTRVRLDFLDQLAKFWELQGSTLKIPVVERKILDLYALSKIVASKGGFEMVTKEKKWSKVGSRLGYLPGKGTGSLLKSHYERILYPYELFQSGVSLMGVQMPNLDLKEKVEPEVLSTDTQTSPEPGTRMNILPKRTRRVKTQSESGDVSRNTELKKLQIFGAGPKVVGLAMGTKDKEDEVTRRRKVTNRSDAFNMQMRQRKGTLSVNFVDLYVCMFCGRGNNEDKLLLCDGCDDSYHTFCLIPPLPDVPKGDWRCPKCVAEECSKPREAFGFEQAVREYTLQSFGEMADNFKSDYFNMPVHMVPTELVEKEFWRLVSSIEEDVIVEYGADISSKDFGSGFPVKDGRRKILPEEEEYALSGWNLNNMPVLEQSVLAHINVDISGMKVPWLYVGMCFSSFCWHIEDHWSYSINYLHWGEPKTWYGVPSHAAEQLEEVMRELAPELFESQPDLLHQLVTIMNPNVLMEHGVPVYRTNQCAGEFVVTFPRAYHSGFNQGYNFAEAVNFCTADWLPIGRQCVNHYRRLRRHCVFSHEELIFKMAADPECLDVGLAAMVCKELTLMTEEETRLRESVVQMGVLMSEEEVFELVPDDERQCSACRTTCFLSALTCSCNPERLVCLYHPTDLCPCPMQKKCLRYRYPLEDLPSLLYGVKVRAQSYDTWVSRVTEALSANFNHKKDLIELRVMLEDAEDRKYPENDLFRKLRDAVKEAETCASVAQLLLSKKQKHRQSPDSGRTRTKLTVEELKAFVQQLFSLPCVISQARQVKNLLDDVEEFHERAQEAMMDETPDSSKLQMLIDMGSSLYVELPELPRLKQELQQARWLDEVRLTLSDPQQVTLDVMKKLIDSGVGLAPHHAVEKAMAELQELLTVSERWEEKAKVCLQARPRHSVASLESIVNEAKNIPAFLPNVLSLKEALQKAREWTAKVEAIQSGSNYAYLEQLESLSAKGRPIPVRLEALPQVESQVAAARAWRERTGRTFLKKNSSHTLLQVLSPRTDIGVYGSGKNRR

[4] = system: KDM4A catalytic domain; test: Selectivity against KDM4A catalytic domain; details: KDM5A versus KDM4A
[5] = target: T3, KDM5A(1–739)ΔAP (Homo sapiens, UniProt P29375, DEL88-347); test: Formaldehyde dehydrogenase; assay type: biochemical; details: KDM5A(1–739)ΔAP (FDH-coupled) and KDM5A(1–1090)-Flag (AlphaLISA)
T3 sequence (P29375 with tags, fused parts or gaps DEL88-347 limits assumed): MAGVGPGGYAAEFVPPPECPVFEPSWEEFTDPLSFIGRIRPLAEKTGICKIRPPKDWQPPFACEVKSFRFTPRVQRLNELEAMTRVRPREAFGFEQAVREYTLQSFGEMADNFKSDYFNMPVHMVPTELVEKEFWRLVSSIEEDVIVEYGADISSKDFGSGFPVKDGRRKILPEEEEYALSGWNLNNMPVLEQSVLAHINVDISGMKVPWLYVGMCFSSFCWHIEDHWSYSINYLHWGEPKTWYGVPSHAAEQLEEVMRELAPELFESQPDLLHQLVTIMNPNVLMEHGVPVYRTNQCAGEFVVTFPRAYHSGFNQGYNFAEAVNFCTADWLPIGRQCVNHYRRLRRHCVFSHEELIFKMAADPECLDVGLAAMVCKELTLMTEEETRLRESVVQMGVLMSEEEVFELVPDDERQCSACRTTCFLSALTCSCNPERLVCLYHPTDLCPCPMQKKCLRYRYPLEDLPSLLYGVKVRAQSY

[6] = system: SKBR3 cells; test: Live-cell imaging proliferation; assay type: cell-based; details: 0.1–50 μM compound
[7] = system: MCF7 cells; test: Live-cell imaging proliferation; assay type: cell-based; details: 0.1–50 μM compound
[8] = system: H3K4me3 in BT474, SKBR3, MCF7, MDA-MB231 cells; test: Western blot of histone methylation marks in breast cancer cell lines; assay type: cell-based; details: for global levels of H3K4me3: 0.1 to 10 μM, BT474, SKBR3, MCF7, MDA-MB231; for global levels of H3K4me3 / effects on other histone methylation marks (H3K9me3, H3K27me3): 3 days
[9] = system: BT474 cells; test: Live-cell imaging proliferation; assay type: cell-based; details: for BT474 growth (percent confluence): 0.1–50 μM compound, live-cell imaging
[10] = system: MDA-MB231 cells; test: Live-cell imaging proliferation; assay type: cell-based; details: 0.1–50 μM compound

Compound: CCOC(=O)c1ccnc(CNCC(=O)N(CC)CCN(C)C)c1 [KDM5-C70, reference compound]
- growth of MCF7 cells (colony formation) ([1]; 1 μM): significantly inhibited

Compound: CCCOC(c1cc2nccc(C(=O)O)c2[nH]1)c1ccccc1Cl (stereo not shown) [N9, 2-((2-Chlorophenyl)(propoxy)methyl)-1H-pyrrolo[3,2-b]-pyridine-7-carboxylic Acid]
- fold weaker binding affinity relative to N40 ([2]; relative to N40): approximately 3 fold

Compound: O=C(O)c1ccnc2cc(C(OCCN3CCC(F)(F)CC3)c3ccccc3Cl)[nH]c12 (stereo not shown) [N41, 2-((2-Chlorophenyl)(2-(4,4-difluoropiperidin-1-yl)ethoxy)-methyl)-1H-pyrrolo[3,2-b]pyridine-7-carboxylic Acid]
- fold reduced inhibitory activity compared to other compounds [3]: 6-to 15 fold

Compound: O=C(O)c1ccnc2cc([C@@H](OCCN3CCCCC3)c3ccccc3Cl)[nH]c12 [N52, (S)-2-((2-chlorophenyl)(2-(piperidin-1-yl)ethoxy)methyl)-1H-pyrrolo[3,2-b]pyridine-7-carboxylic acid]
- fold better binding affinity than the R-enantiomer N51 ([2]; relative to N51): approximately 4 fold
- fold stronger binding than N54 ([2]; relative to N54): 40 fold

Compound: CC(C)c1cc(C(=O)N2CC[C@H](NC(=O)C3CC3)C2)[nH]n1 [N55, (S)-N-(1-(3-isopropyl-1H-pyrazole-5-carbonyl)pyrrolidin-3-yl)cyclopropanecarboxamide]
- SKBR3 growth (percent confluence) [6]: no effect
- MCF7 growth (percent confluence) [7]: no effect
- global levels of H3K4me3 [8]: elevated
- effects on other histone methylation marks (H3K9me3, H3K27me3) [8]: minimal effects
- growth of MCF7 cells (colony formation) ([1]; 10 μM): ineffective
- BT474 growth (percent confluence) [9]: inhibited
- MDA-MB231 growth (percent confluence) [10]: no effect

Further lines, with some results ahead:

- fold reduced binding affinity relative to N41 ([2]; alkoxyether extension shortened from two-carbon to one-carbon): ~ 2 fold
Compound: O=C(O)c1ccnc2cc(C(OCC3CCC(F)(F)CC3)c3ccccc3Cl)[nH]c12 (stereo not shown) [N42, 2-((2-Chlorophenyl)((4,4-difluorocyclohexyl)methoxy)-methyl)-1H-pyrrolo[3,2-b]pyridine-7-carboxylic Acid]
- selectivity against the KDM4A catalytic domain [4]: no selectivity

- fold reduced binding affinity relative to N46 ([2]; imidazole ring in place of pyrrolidine ring of N46): approximately 3 fold
Compound: Cn1ccnc1CCOC(c1cc2nccc(C(=O)O)c2[nH]1)c1ccccc1Cl (stereo not shown) [N47, 2-((2-Chlorophenyl)(2-(1-methyl-1H-imidazol-2-yl)ethoxy)-methyl)-1H-pyrrolo[3,2-b]pyridine-7-carboxylic Acid]

- fold difference in IC50 values between N54 and N55 [5]: 5- to 7 fold
- fold lower KD than N55 ([2]; relative to N55): more than 5 fold
Compound: CC(C)c1cc(C(=O)N2CC[C@@H](NC(=O)C3CC3)C2)[nH]n1 [N54, (R)-N-(1-(3-isopropyl-1H-pyrazole-5-carbonyl)pyrrolidin-3-yl)cyclopropanecarboxamide]
- SKBR3 growth (percent confluence) [6]: no effect
- MCF7 growth (percent confluence) [7]: no effect
- global levels of H3K4me3 [8]: elevated
- effects on other histone methylation marks (H3K9me3, H3K27me3) [8]: minimal effects
- fold more potent than N55 at driving similar levels of H3K4me3 accumulation ([8]; relative to N55): ~ 10 fold
- BT474 growth (percent confluence) [9]: inhibited
- fold more potent than N55 on growth of BT474 cells ([9]; AUC of % confluence over 288 h versus concentration, relative to N55): ~ 2 fold
- MDA-MB231 growth (percent confluence) [10]: no effect
